Laboratory results as given in patent publication US8796259B2, “N3-heteroaryl substituted triazoles and N5-heteroaryl substituted triazoles useful as axl inhibitors” (Rigel Pharmaceuticals, Inc., priority 2006, dated 2014).

molecular target: T1, Axl (Homo sapiens, UniProt P30530); experiment: Phospho-Akt in-cell Western assay (inhibition of Axl activity, Axl-antibody cross-linking stimulation); format: cell-based; settings: Hela cells, phospho-Akt readout; compounds of formula (Ia), Table 1
T1 construct: endogenous in cells; host or cells: HeLa cells
T1 sequence (P30530 26-894): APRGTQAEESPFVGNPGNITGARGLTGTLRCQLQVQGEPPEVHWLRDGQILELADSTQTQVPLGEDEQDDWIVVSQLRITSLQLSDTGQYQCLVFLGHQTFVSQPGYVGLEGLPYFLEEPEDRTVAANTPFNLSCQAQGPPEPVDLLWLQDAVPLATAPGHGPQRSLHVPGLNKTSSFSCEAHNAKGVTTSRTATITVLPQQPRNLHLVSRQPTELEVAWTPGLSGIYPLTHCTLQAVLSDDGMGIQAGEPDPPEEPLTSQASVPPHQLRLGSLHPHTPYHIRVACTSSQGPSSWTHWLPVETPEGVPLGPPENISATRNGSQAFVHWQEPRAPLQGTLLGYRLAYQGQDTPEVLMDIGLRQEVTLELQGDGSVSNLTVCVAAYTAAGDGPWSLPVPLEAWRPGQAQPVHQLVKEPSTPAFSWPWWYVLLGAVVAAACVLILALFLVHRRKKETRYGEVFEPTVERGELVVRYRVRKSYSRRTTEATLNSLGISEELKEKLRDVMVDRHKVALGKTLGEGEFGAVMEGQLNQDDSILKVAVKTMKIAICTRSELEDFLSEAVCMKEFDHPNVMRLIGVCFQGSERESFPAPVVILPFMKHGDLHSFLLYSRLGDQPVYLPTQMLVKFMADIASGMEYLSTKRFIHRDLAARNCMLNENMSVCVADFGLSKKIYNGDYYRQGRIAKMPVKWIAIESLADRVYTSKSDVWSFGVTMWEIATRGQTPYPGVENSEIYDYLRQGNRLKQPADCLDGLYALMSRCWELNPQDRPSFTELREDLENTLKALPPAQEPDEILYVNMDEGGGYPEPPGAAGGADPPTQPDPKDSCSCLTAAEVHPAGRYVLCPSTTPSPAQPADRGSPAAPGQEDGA
Summary of the method: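 HeLa cells on poly-L-lysine were starved 24 h in 0.5% FCS/DMEM with 500 ng/mL Axl/Fc, pre-treated with compound 1 h at 37 °C, then stimulated 5 min by cross-linked mouse anti-Axl/biotin anti-mouse antibody clusters. After formaldehyde fixation, phospho-Akt was detected by rabbit anti-phospho-Akt and HRP secondary with chemiluminescence read-out.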

Row | SMILES | IC50 [nM]
1 | Cc1cc(Nc2nc(N)n(-c3ncnc4c(C)csc34)n2)cnc1N1CCN(CC2CC2)CC1 [compound 94, 1-(7-methylthieno [3,2-d]pyrimidine-4-yl)-N^3-(6-(4-(cyclopropyl-methyl)piperazin-1-yl)-5-methyl-pyridine-3-yl)-1H-1,2,4-triazole-3,5-diamine] | < 1000
2 | Cc1cc(Nc2nc(N)n(-c3nc(Cl)nc4c(C)csc34)n2)cnc1N1CCN(CC2CC2)CC1 [compound 95, 1-(2-chloro-7-methylthieno [3,2-d]pyrimidin-4-yl)-N^3-(6-(4-(cyclopropyl-methyl)piperazin-1-yl)-5-methyl-pyridin-3-yl)-1H-1,2,4-triazole-3,5-diamine] | < 1000
3 | Cc1csc2c(-n3nc(Nc4cnc5c(c4)CN(C(=O)C4CCN(C)CC4)CC5)nc3N)ncnc12 [compound 96, 1-(7-methylthieno [3,2-d]pyrimidin-4-yl)-N^3-(6-(1-methyl-piperidin-4-yl)carbonyl-5,6,7,8-tetrahydro-1,6-naphthyridin-3-yl)-1H-1,2,4-triazole-3,5-diamine] | < 1000
4 | Cc1csc2c(-n3nc(Nc4cnc5c(c4)CN(C4CCCC4)CC5)nc3N)ncnc12 [compound 97, 1-(7-methylthieno [3,2-d]pyrimidin-4-yl)-N^3-(6-cyclopentyl-5,6,7,8-tetrahydro-1,6-naphthyridin-3-yl)-1H-1,2,4-triazole-3,5-diamine] | < 1000
5 | Cc1csc2c(-n3nc(Nc4cnc5c(c4)CN(CC4CC4)CC5)nc3N)nc(Cl)nc12 [compound 101, 1-(2-chloro-7-methylthieno [3,2-d]pyrimidin-4-yl)-N^3-(6-cyclopropyl-methyl-5,6,7,8-tetrahydro-1,6-naphthyridin-3-yl)-1H-1,2,4-triazole-3,5-diamine] | < 1000
6 | Cc1csc2c(-n3nc(Nc4cnc5c(c4)CN(C4CC6CCC4C6)CC5)nc3N)nc(Cl)nc12 (stereo not drawn) [compound 102, 1-(2-chloro-7-methylthieno [3,2-d]pyrimidin-4-yl)-N^3-(6-bicyclo[2.2.1]heptan-2-yl-5,6,7,8-tetrahydro-1,6-naphthyridin-3-yl)-1H-1,2,4-triazole-3,5-diamine] | < 1000
7 | Cc1csc2c(-n3nc(Nc4cnc5c(c4)CC(NC4CC6CCC4C6)CC5)nc3N)nc(Cl)nc12 (stereo not drawn) [compound 103, 1-(2-chloro-7-methylthieno [3,2-d]pyrimidin-4-yl)-N^3-(6-bicyclo[2.2.1]heptan-2-yl-amino-5,6,7,8-tetrahydro-quinolin-3-yl)-1H-1,2,4-triazole-3,5-diamine] | < 1000
8 | Cc1csc2c(-n3nc(Nc4cnc5c(c4)CC(N(CC4CC4)CC4CC4)CC5)nc3N)nc(Cl)nc12 (stereo not drawn) [compound 104, 1-(2-chloro-7-methylthieno [3,2-d]pyrimidin-4-yl)-N^3-(6-bis-(cyclo-propylmethyl)amino-5,6,7,8-tetrahydro-quinolin-3-yl)-1H-1,2,4-triazole-3,5-diamine] | < 1000
9 | Cc1csc2c(-n3nc(Nc4cnc5c(c4)CCC(N4CCCC4)CC5)nc3N)ncnc12 (stereo not drawn) [compound 105, 1-(7-methylthieno [3,2-d]pyrimidin-4-yl)-N^3-(7-(pyrrolidin-1-yl)-6,7,8,9-tetrahydro-5H-cyclohepta [b]pyridine-3-yl)-1H-1,2,4-triazole-3,5-diamine] | < 1000
10 | Cc1cc(Nc2nc(N)n(-c3nc(Cl)nc4c(C)csc34)n2)cnc1N1CCN([C@H]2CC3CCC2C3)[C@@H](C)C1 (stereo partly drawn) [compound 107, 1-(2-chloro-7-methylthieno [3,2-d]pyrimidin-4-yl)-N^3-(2-(3-(S)-methyl-4-(2S)-bicyclo[2.2.1]heptan-2-ylpiperazin-1-yl)-3-methylpyridin-5-yl)-1H-1,2,4-triazole-3,5-diamine] | < 1000
11 | Cc1cc(Nc2nc(N)n(-c3ncnc4ccsc34)n2)cnc1N1CCN([C@H]2CC3CCC2C3)[C@@H](C)C1 (stereo partly drawn) [compound 108, 1-(thieno [3,2-d]pyrimidin-4-yl)-N^3-(2-(3-(S)-methyl-4-(2S)-bicyclo[2.2.1]heptan-2-ylpiperazin-1-yl)-3-methylpyridin-5-yl)-1H-1,2,4-triazole-3,5-diamine] | < 1000
12 | Cc1cc(Nc2nc(N)n(-c3nnc(C)c4ccsc34)n2)cnc1N1CCN([C@H]2C[C@@H]3CC[C@H]2C3)CC1 [compound 112, 1-(4-methylthieno [3,2-d]pyridazine-7-yl)-N^3-(2-(4-(1S,2S,4R)-bicyclo[2.2.1]heptan-2-ylpiperazin-1-yl)-3-methylpyridin-5-yl)-1H-1,2,4-triazole-3,5-diamine] | > 20000
13 | COc1cc2ncnc(-n3nc(Nc4ccc(C=CCN5CCN(C(C)C)CC5)nc4)nc3N)c2cc1OC [compound 113, 1-(6,7-dimethoxy-quinazoline-4-yl)-N^3-(2-(3-(4-isopropyl-piperazin-1-yl)propen-1-yl)pyridine-5-yl)-1H-1,2,4-triazole-3,5-diamine] | < 1000
14 | COc1cc2ncnc(-n3nc(Nc4ccc(N5CCN(CC6CC6)[C@@H](C)C5)nc4)nc3N)c2cc1OC [compound 114, 1-(6,7-dimethoxy-quinazoline-4-yl)-N^3-(2-(4-cyclo-propylmethyl-3-(S)-methyl-piperazin-1-yl)pyridin-5-yl)-1H-1,2,4-triazole-3,5-diamine] | < 1000
15 | Cc1csc2c(-n3nc(Nc4ccc(N5CCN(CC6CC6)[C@@H](C)C5)nc4)nc3N)nc(Cl)nc12 [compound 115, 1-(2-chloro-7-methyithieno [3,2-d]pyrimidin-4-yl)-N^3-(2-(4-cyclopropyl-methyl-3-(S)-methyl-piperazin-1-yl)pyridin-5-yl)-1H-1,2,4-triazole-3,5-diamine] | 1000 to 10000

Continued, values first:

Row | IC50 [nM] | SMILES
16 | < 1000 | Cc1csc2c(-n3nc(Nc4cnc(N5CCC(N6CCCC6)CC5)nc4)nc3N)nc(Cl)nc12 [compound 91, 1-(2-chloro-7-methylthieno [3,2-d]pyrimidin-4-yl)-N^3-(2-(4-pyrrolidin-1ylpiperidin-1-yl)pyrimidin-5-yl)-1H-1,2,4-triazole-3,5-diamine]
17 | < 1000 | Cc1csc2c(-n3nc(Nc4cnc5c(c4)CC(NC(=O)C4CCN(C)CC4)CC5)nc3N)ncnc12 (stereo not drawn) [compound 98]
18 | < 1000 | Cc1csc2c(-n3nc(Nc4cnc5c(c4)CC(NC4CCCC4)CC5)nc3N)ncnc12 (stereo not drawn) [compound 99, 1-(7-methylthieno [3,2-d]pyrimidin-4-yl)-N^3-(6-cyclopentyl-amino-5,6,7,8-tetrahydro-quinolin-3-yl)-1H-1,2,4-triazole-3,5-diamine]
19 | < 1000 | Cc1csc2c(-n3nc(Nc4cnc5c(c4)CC(NC4CCCCC4)CC5)nc3N)nc(Cl)nc12 (stereo not drawn) [compound 100, 1-(2-chloro-7-methylthieno [3,2-d]pyrimidin-4-yl)-N^3-(6-cyclohexyl-amino-5,6,7,8-tetrahydro-quinolin-3-yl)-1H-1,2,4-triazole-3,5-diamine]
20 | < 1000 | Cc1cc(Nc2nc(N)n(-c3ncnc4c(C)csc34)n2)cnc1N1CCN([C@H]2C[C@@H]3CC[C@H]2C3)[C@@H](C)C1 [compound 106, 1-(7-methylthieno [3,2-d]pyrimidin-4-yl)-N^3-(2-(3-(S)-methyl-4-(1S,2S,4R)-bicyclo[2.2.1]heptan-2-ylpiperazin-1-yl)-3-methylpyridin-5-yl)-1H-1,2,4-triazole-3,5-diamine]
21 | 1000 to 10000 | Cc1csc2c(-n3nc(Nc4cnc(N5CCN([C@H]6CC7CCC6C7)CC5)c(Cl)c4)nc3N)nc(Cl)nc12 (stereo partly drawn) [compound 109, 1-(2-chloro-7-methylthieno [3,2-d]pyrimidin-4-yl)-N^3-(2-(4-(2S)-bicyclo[2.2.1]heptan-2-ylpiperazin-1-yl)-3-chloropyridin-5-yl)-1H-1,2,4-triazole-3,5-diamine]
22 | 10000 to 20000 | Cc1csc2c(-n3nc(Nc4cnc(N5CCN([C@H]6CC7CCC6C7)CC5)c(Cl)c4)nc3N)ncnc12 (stereo partly drawn) [compound 110, 1-(7-methylthieno [3,2-d]pyrimidin-4-yl)-N^3-(2-(4-(2S)-bicyclo[2.2.1]heptan-2-ylpiperazin-1-yl)-3-chloropyridin-5-yl)-1H-1,2,4-triazole-3,5-diamine]
23 | < 1000 | Cc1cc(Nc2nc(N)n(-c3ncnc4c(C)csc34)n2)cnc1N1CCN([C@H]2CC3CCC2C3)CC1 (stereo partly drawn) [compound 111, 1-(7-methylthieno [3,2-d]pyrimidin-4-yl)-N^3-(2-(4-(2S)-bicyclo[2.2.1]heptan-2-ylpiperazin-1-yl)-3-methylpyridin-5-yl)-1H-1,2,4-triazole-3,5-diamine]

same assay, conditions: Hela cells, phospho-Akt readout; compounds of formula (Ib), Table 2

Row | IC50 [nM] | SMILES
24 | 1000 to 10000 | Cc1cc(Nc2nc(N)nn2-c2nc(Cl)nc3c(C)csc23)cnc1N1CCC(N2CCCC2)CC1 [compound 92, 1-(2-chloro-7-methylthieno[3,2-d]pyrimidin-4-yl)-N^5-(6-(4-(pyrrolidin-1-yl)piperidin-1-yl)-5-methylpyridin-3-yl)-1H-1,2,4-triazole-3,5-diamine]
